In paper PMC6576746, “Rational discovery of dual-indication multi-target PDE/Kinase inhibitor for precision anti-cancer therapy using structural systems pharmacology” (PLoS Computational Biology, 2019):

How the values were obtained:
Test in all cases: cells
Design in all cases: species or system panel of human cancer cell lines; Eurofins OncoPanel proliferation; nuclei count by high-content fluorescence imaging, 10-point dose response
Hs 578T = conditions: Homo sapiens, Hs-578T, 72 h, cell count, 3 days
How it was run: (§1)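 Ten half-log concentrations from 100 μM (0.1% DMSO max) applied one day post-seeding, 3-day exposure at 37°C; untreated time-zero plate for GI50. Readout is nuclear cell count by automated fluorescence imaging, giving EC50, IC50, GI50 and 0–10 activity area.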

MES-SA = conditions: Homo sapiens, MES-SA, 72 h, cell count, 3 days
How it was run: as §1

Hs 729 = conditions: 72 h, cell count, 3 days
How it was run: as §1

TF-1 = conditions: Homo sapiens, TF-1, 72 h, cell count, 3 days
How it was run: as §1

Thp1 = conditions: Homo sapiens, THP-1, 72 h, cell count, 3 days
How it was run: as §1

DBTRG-05MG = conditions: Homo sapiens, DBTRG-05MG, 72 h, cell count, 3 days
How it was run: as §1

Hs 934.T = conditions: 72 h, cell count, 3 days
How it was run: as §1

EB-3 = conditions: Homo sapiens, EB-3, 72 h, cell count, 3 days
How it was run: as §1

UM-UC-3 = conditions: Homo sapiens, UMUC3, 72 h, cell count, 3 days
How it was run: as §1

Daudi = conditions: Homo sapiens, Daudi, 72 h, cell count, 3 days
How it was run: as §1

REC-1 = conditions: Homo sapiens, Rec1, 72 h, cell count, 3 days
How it was run: as §1

CML-T1 = conditions: CML-T1, 72 h, cell count, 3 days
How it was run: as §1

ARH-77 = conditions: Homo sapiens, ARH-77, 72 h, cell count, 3 days
How it was run: as §1

G-401 = conditions: Homo sapiens, G-401, 72 h, cell count, 3 days
How it was run: as §1

[1] = 50% of maximum possible response

- IC50 (Thp1; [1]): 35.5 µM
- GI50 (Thp1; corrected for time zero): 23.1 µM
- EC50 (Thp1; curve inflection point): 35.5 µM
- IC50 (Daudi; [1]): 16.3 µM
- GI50 (Daudi; corrected for time zero): 14.2 µM
- EC50 (Daudi; curve inflection point): 15.3 µM
SMILES: C[C@@H]1CC(=O)NN=C1c1ccc(NN=C(C#N)C#N)cc1 [levosimendan]
- IC50 (Hs 578T; [1]): > 100 µM
- GI50 (Hs 578T; corrected for time zero): > 100 µM
- EC50 (Hs 578T; curve inflection point): 48 µM
- IC50 (MES-SA; [1]): 15.6 µM
- GI50 (MES-SA; corrected for time zero): 13.7 µM
- EC50 (MES-SA; curve inflection point): 15.6 µM
- IC50 (Hs 729; [1]): > 100 µM
- GI50 (Hs 729; corrected for time zero): 79.3 µM
- EC50 (Hs 729; curve inflection point): > 100 µM
- IC50 (TF-1; [1]): 41.7 µM
- GI50 (TF-1; corrected for time zero): 19.7 µM
- EC50 (TF-1; curve inflection point): 41.7 µM
- IC50 (DBTRG-05MG; [1]): 75.6 µM
- GI50 (DBTRG-05MG; corrected for time zero): 41.4 µM
- EC50 (DBTRG-05MG; curve inflection point): 75.6 µM
- IC50 (Hs 934.T; [1]): > 100 µM
- GI50 (Hs 934.T; corrected for time zero): > 100 µM
- EC50 (Hs 934.T; curve inflection point): > 100 µM
- IC50 (EB-3; [1]): 30 µM
- GI50 (EB-3; corrected for time zero): 23.6 µM
- EC50 (EB-3; curve inflection point): 30 µM
- IC50 (UM-UC-3; [1]): 48.5 µM
- GI50 (UM-UC-3; corrected for time zero): 46 µM
- EC50 (UM-UC-3; curve inflection point): 48.5 µM
- IC50 (REC-1; [1]): 25.2 µM
- GI50 (REC-1; corrected for time zero): 9.04 µM
- EC50 (REC-1; curve inflection point): 25.2 µM
- IC50 (CML-T1; [1]): 15.7 µM
- GI50 (CML-T1; corrected for time zero): 12.5 µM
- EC50 (CML-T1; curve inflection point): 15.7 µM
- IC50 (ARH-77; [1]): 20.3 µM
- GI50 (ARH-77; corrected for time zero): 16 µM
- EC50 (ARH-77; curve inflection point): 19.3 µM
- IC50 (G-401; [1]): 5.47 µM
- GI50 (G-401; corrected for time zero): 4.83 µM
- EC50 (G-401; curve inflection point): 5.34 µM
